Experimental data from article PMC6467542 (Bioorganic & Medicinal Chemistry, 2019).
Converted amounts (≈) assume the structure as drawn.

Key:
[1] = tested on: M. tb (strain H37Rv); test: MIC90 against replicating M.tb (MABA); type: cell-based, Mycobacterium tuberculosis; details: aerobic (replicating) conditions, 90% inhibition of growth; for MIC90: Mycobacterium tuberculosis
[2] = tested on: M. tb (strain H37Rv); test: MIC90 against non-replicating M.tb (LORA); type: cell-based, Mycobacterium tuberculosis; details: for MIC90: Mycobacterium tuberculosis, H37RV, read-out: MIC90 LORA
Experimental: In these assays, 1 is a potent inhibitor, with MICs of 0.08 and 0.12 µg/mL, respectively. Replacement of the naphthalene C-unit of 1 with various pyridyls produced analogues of considerably lower lipophilicity, with clogP values ranging from 6.89 down to 2.98.

[3] = mouse, in vivo
[4] = in vitro; details: human, microsomes
[5] = in vitro; details: mouse, microsomes
[6] = target: hERG potassium channel (Homo sapiens, UniProt Q12809); test: Inhibition of hERG potassium current (patch clamp electrophysiology); details: for hERG % inhibition at 3 µM: manual or (less accurate) QPatch assay; for IC50: read-out: hERG IC50, manual patch clamp, 5-concentration dose-response; for hERG % inhibition at 1 µM: manual assay
[7] = tested on: M.tb; test: Efficacy in a mouse model of TB (lung CFU reduction); type: in vivo; details: Mycobacterium tuberculosis, inhaled or nasal, 288 h; read-out: Log reduction in colony-forming units (CFU), new compound

Sequence of hERG potassium channel (Q12809 whole entry): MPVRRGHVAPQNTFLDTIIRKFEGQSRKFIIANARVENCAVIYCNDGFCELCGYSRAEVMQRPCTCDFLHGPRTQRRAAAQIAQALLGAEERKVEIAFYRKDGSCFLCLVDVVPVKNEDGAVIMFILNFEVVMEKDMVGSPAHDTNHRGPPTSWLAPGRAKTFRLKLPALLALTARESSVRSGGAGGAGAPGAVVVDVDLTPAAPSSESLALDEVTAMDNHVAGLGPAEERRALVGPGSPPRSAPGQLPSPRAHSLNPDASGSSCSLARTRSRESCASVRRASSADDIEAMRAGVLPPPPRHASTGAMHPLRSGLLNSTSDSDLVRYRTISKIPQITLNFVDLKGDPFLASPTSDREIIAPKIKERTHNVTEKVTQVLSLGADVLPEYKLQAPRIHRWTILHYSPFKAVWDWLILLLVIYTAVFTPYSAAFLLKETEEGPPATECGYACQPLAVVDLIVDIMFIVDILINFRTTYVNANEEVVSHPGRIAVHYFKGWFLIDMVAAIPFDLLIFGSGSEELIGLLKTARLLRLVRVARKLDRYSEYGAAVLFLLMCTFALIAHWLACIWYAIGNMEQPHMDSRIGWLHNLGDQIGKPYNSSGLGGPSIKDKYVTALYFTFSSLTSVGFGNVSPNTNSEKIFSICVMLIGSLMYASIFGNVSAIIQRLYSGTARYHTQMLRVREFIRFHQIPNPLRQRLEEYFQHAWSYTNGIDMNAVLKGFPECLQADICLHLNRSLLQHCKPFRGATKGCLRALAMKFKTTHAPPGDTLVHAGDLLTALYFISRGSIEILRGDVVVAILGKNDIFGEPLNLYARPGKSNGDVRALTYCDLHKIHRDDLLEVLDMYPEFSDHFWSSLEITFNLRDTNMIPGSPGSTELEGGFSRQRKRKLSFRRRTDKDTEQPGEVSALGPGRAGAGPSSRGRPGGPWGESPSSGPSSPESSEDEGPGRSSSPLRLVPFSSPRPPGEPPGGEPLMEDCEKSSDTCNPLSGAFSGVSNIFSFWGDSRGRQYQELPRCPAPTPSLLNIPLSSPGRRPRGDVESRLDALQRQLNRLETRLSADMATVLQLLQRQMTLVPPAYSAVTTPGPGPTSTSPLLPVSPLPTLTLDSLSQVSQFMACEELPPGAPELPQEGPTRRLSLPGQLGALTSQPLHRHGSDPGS

Row | Compound | MIC90 [1] [µg/mL] | MIC90 [2] [µg/mL] | microsomal CLint [4] [µL/min/mg] | microsomal CLint [5] [µL/min/mg] | also measured
1 | COc1nc2ccc(Br)cc2cc1C(c1cccc2c1OCO2)C(O)(CCN(C)C)c1cccnc1C (stereo not drawn) [Compound 21] | 0.45 (≈ 0.797 µM) | 0.56 (≈ 0.992 µM) | 71 | 51 | AUC: exposure, AUCinf [3]: 820 ng·h/mL; IV Cl: IV clearance [3]: 44 mL/min/kg; Vz: IV apparent volume of distribution during terminal phase [3]: 21 L/kg; F: oral bioavailability [3]: 19%; hERG % inhibition at 3 µM [6]: 13%/3
2 | COc1cc(C(O)(CCN(C)C)C(c2cc3cc(Br)ccc3nc2OC)c2cccc(OC)c2F)c(OC)cn1 (stereo not drawn) [Compound 60] | 0.11 (≈ 0.179 µM) | 0.12 (≈ 0.195 µM) | 7 | 25 | IC50 [6]: 1700 nM
3 | COc1nc2ccc(C#N)cc2cc1C(c1cccc(F)c1)C(O)(CCN(C)C)c1cncc(C)c1 (stereo not drawn) [Compound 27] | 1.2 (≈ 2.48 µM) | 0.98 (≈ 2.02 µM) | 122 | 249 | hERG % inhibition at 1 µM [6]: 42%/1
4 | CCc1cc(C(O)(CCN(C)C)C(c2cc3cc(C#N)ccc3nc2OC)c2cccc(OC)c2F)cc(CC)n1 (stereo not drawn) [Compound 59] | 0.19 (≈ 0.341 µM) | 0.28 (≈ 0.503 µM) | 10 | 27 | hERG % inhibition at 1 µM [6]: 48%/1
5 | CCOc1cc(C(O)(CCN(C)C)C(c2cc(OC)nc(OC)c2)c2cc3cc(Br)ccc3nc2OC)cc(OC(C)C)n1 (stereo not drawn) [Compound 62] | < 0.02 |  | 1 | 2.3 | log reduction at 20 mg/kg [7]: 4.5; AUC: exposure, AUCinf [3]: 33000 ng·h/mL; IV Cl: IV clearance [3]: 3 mL/min/kg; Vz: IV apparent volume of distribution during terminal phase [3]: 20 L/kg; F: oral bioavailability [3]: 58%; IC50 [6]: > 10000 nM
6 | CCc1cc(C(O)(CCN(C)C)C(c2cc3cc(Br)ccc3nc2OC)c2cccc(OC)c2F)cc(CC)n1 (stereo not drawn) [Compound 58] | 0.03 (≈ 0.0491 µM) | 0.21 (≈ 0.344 µM) | 8 | 20 | hERG % inhibition at 3 µM [6]: 63%/3
7 | COc1cccc(C(c2cc3cc(Br)ccc3nc2OC)C(O)(CCN(C)C)c2cc(C)nc(C)c2)c1F (stereo not drawn) [Compound 54] | 0.11 (≈ 0.189 µM) | 0.3 (≈ 0.515 µM) |  |  | 
8 | COc1cccc(C(c2cc3cc(Br)ccc3nc2OC)C(O)(CCN(C)C)c2cnc(C)c(C)c2)c1OC (stereo not drawn) [Compound 34] | 0.07 (≈ 0.118 µM) | 0.14 (≈ 0.235 µM) |  |  | 
9 | COc1cccc(C(c2cc3cc(C#N)ccc3nc2OC)C(O)(CCN(C)C)c2cccc(C)n2)c1OC (stereo not drawn) [Compound 3] | 4.1 (≈ 7.79 µM) | 1.9 (≈ 3.61 µM) |  |  | 
10 | COc1cccc(C(c2cc3cc(Br)ccc3nc2OC)C(O)(CCN(C)C)c2cc(C)ccn2)c1F (stereo not drawn) [Compound 6] | 0.6 (≈ 1.06 µM) | 2.1 (≈ 3.69 µM) |  |  | 
11 | COc1cccc(C(c2cc3cc(Br)ccc3nc2OC)C(O)(CCN(C)C)c2cnc(C)cc2C)c1F (stereo not drawn) [Compound 37] | 0.53 (≈ 0.91 µM) | 0.29 (≈ 0.498 µM) |  |  | 
12 | COc1nc2ccc(Br)cc2cc1C(c1cccc(F)c1)C(O)(CCN(C)C)c1cncc(C)c1 (stereo not drawn) [Compound 26] | 0.28 (≈ 0.52 µM) | 0.08 (≈ 0.149 µM) |  |  | 
13 | COc1cccc(C(c2cc3cc(Br)ccc3nc2OC)C(O)(CCN(C)C)c2ncccc2C)c1F (stereo not drawn) [Compound 7] | 0.19 (≈ 0.334 µM) | 0.4 (≈ 0.704 µM) |  |  | 
14 | COc1cccc(C(c2cc3cc(C#N)ccc3nc2OC)C(O)(CCN(C)C)c2ccc(C)nc2)c1F (stereo not drawn) [Compound 23] | 4.7 (≈ 9.13 µM) | > 5 |  |  | 
15 | COc1cccc(C(c2cc3cc(Br)ccc3nc2OC)C(O)(CCN(C)C)c2cncc(C)c2)c1OC (stereo not drawn) [Compound 28] | 0.3 (≈ 0.517 µM) | 0.57 (≈ 0.982 µM) |  |  | 
16 | COc1cc(C(O)(CCN(C)C)C(c2cc3cc(Br)ccc3nc2OC)c2ccnc(OC)c2OC)c(OC)nc1OC (stereo not drawn) [Compound 49] | 0.57 (≈ 0.867 µM) | 1.4 (≈ 2.13 µM) | 5 | 7 | AUC: exposure, AUCinf [3]: 9130 ng·h/mL; IV Cl: IV clearance [3]: 10 mL/min/kg; Vz: IV apparent volume of distribution during terminal phase [3]: 12 L/kg; F: oral bioavailability [3]: 52%; IC50 [6]: 2700 nM
17 | COc1cccc(C(c2cc3cc(Br)ccc3nc2OC)C(O)(CCN(C)C)c2cc(C)cc(C)n2)c1F (stereo not drawn) [Compound 11] | 0.14 (≈ 0.24 µM) | 0.11 (≈ 0.189 µM) |  |  | 
18 | COc1cccc(C(c2cc3cc(Br)ccc3nc2OC)C(O)(CCN(C)C)c2cccnc2C)c1OC (stereo not drawn) [Compound 20] | 0.3 (≈ 0.517 µM) | 0.59 (≈ 1.02 µM) |  |  | 
19 | COc1cccc(C(c2cc3cc(Br)ccc3nc2OC)C(O)(CCN(C)C)c2cc(C)cnc2C)c1F (stereo not drawn) [Compound 32] | 0.07 (≈ 0.12 µM) | 0.23 (≈ 0.395 µM) |  |  | 
20 | COc1cccc(C(O)(CCN(C)C)C(c2cccc(C)c2)c2cc3cc(C#N)ccc3nc2OC)n1 (stereo not drawn) [Compound 14] | 0.6 (≈ 1.21 µM) | 0.29 (≈ 0.584 µM) |  |  | 
21 | COc1cccc(C(c2cc3cc(C#N)ccc3nc2OC)C(O)(CCN(C)C)c2ccnc(C)c2)c1F (stereo not drawn) [Compound 52] | > 5 | 3.8 (≈ 7.38 µM) |  |  | 
22 | COc1cccc(C(c2cc3cc(C#N)ccc3nc2OC)C(O)(CCN(C)C)c2cccc(C)n2)c1F (stereo not drawn) [Compound 5] | 1.1 (≈ 2.14 µM) | 1.8 (≈ 3.5 µM) |  |  | 
23 | COc1cnc(OC)c(C(O)(CCN(C)C)C(c2cc3cc(Br)ccc3nc2OC)c2cccc(OC)c2F)c1 (stereo not drawn) [Compound 46] | 0.09 (≈ 0.146 µM) | 0.04 (≈ 0.0651 µM) | 7 | 53 | IC50 [6]: 2900 nM
24 | COc1cccc(C(c2cc3cc(C#N)ccc3nc2OC)C(O)(CCN(C)C)c2cncc(C)c2)c1F (stereo not drawn) [Compound 31] | 3.3 (≈ 6.41 µM) | 2.5 (≈ 4.86 µM) |  |  | 
25 | 1-(7-bromo-3-methoxynaphthalen-2-yl)-1-(2,3-dimethoxyphenyl)-4-(dimethylamino)-2-(2,6-dimethylpyridin-4-yl)butan-2-ol [Compound 56] |  |  |  |  | MIC90 MABA [1]: 0.04 µg/mL; MIC90 LORA ([2]; M.tb H37Rv, non-replicating conditions, 90% inhibition of growth): 0.07 µg/mL
26 | COc1cccc(C(c2cc3cc(Br)ccc3nc2OC)C(O)(CCN(C)C)c2cccc(C)n2)c1F (stereo not drawn) [Compound 4] | 0.29 (≈ 0.51 µM) | 2 (≈ 3.52 µM) | 10 | 39 | hERG % inhibition at 3 µM [6]: 34%/3
27 | COc1cccc(C(c2cc3cc(Br)ccc3nc2OC)C(O)(CCN(C)C)c2ncc(C)cc2C)c1F (stereo not drawn) [Compound 13] | 0.3 (≈ 0.515 µM) | 0.46 (≈ 0.79 µM) |  |  | 
